Several values for one entry are separate records, joined by “and”; a condition that tells them apart may be missing. Equal entries are not always repeated. Toxic doses and inconclusive results are not listed.

This assay has as its system P388 leukemia ip, CD2F1 mice, survival T/C. Description: NCI In Vivo Anticancer Drug Screen. Data for tumor model P388 Leukemia (intraperitoneal) in CD2F1 (CDF1) mice. Conditions: endpoint: median survival time, higher = longer survival. The method in brief: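 Mice carrying the transplanted tumor received test compound or vehicle. Survival was recorded in each group, and the value is the treated-group measurement divided by that of the vehicle-treated control group.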

[1] abbreviates: dose: 50.0 mg/kg/injection, schedule: Q01DX009 (ip), vehicle: saline with Tween-80.
Setting [2] is: dose: 100.0 mg/kg/injection, schedule: Q01DX009 (ip), vehicle: saline with Tween-80.
Setting [3] is: dose: 200.0 mg/kg/injection, schedule: Q01DX009 (ip), vehicle: saline with Tween-80.
The mark [4] stands for this setting: dose: 50.0 mg/kg/injection, schedule: Q01DX005 (ip), vehicle: saline with Tween-80.
The mark [5] stands for this setting: dose: 50.0 mg/kg/injection, schedule: Q01DX009 (ip), vehicle: Klucel (hydroxypropylcellulose) (HPC).
The mark [6] stands for this setting: dose: 100.0 mg/kg/injection, schedule: Q01DX009 (ip), vehicle: Klucel (hydroxypropylcellulose) (HPC).
Where [7] appears, read: dose: 60.0 mg/kg/injection, schedule: Q01DX005 (ip), vehicle: saline with Tween-80.
The mark [8] stands for this setting: dose: 120.0 mg/kg/injection, schedule: Q01DX005 (ip), vehicle: saline with Tween-80.
Where [9] appears, read: dose: 240.0 mg/kg/injection, schedule: Q01DX005 (ip), vehicle: saline with Tween-80.
[10] abbreviates: dose: 50.0 mg/kg/injection, schedule: Q01DX009 (ip), vehicle: saline.
Setting [11] is: dose: 50.0 mg/kg/injection, schedule: Q01DX005 (ip), vehicle: Klucel (hydroxypropylcellulose) (HPC).
Where [12] appears, read: dose: 100.0 mg/kg/injection, schedule: Q01DX005 (ip), vehicle: Klucel (hydroxypropylcellulose) (HPC).

On to `O=NN(CCCl)C(=O)Oc1c(Cl)cc(Cl)cc1Cl`, for which the T/C was 163 % of control (dose: 50.0 mg/kg/injection, schedule: Q01DX001 (ip), vehicle: saline with Tween-80); 99 % of control (dose: 67.0 mg/kg/injection, schedule: Q01DX001 (ip), vehicle: saline with Tween-80); 193 % of control (dose: 100.0 mg/kg/injection, schedule: Q01DX001 (ip), vehicle: saline with Tween-80).

For the molecule `O=C(O)Cn1nc([O-])[n+]2ccccc12`, the T/C reads like this: under setting [1], 100 % of control; under setting [2], 94 % of control; under setting [3], 110 % of control.

Regarding `O=C1C(Sc2ccccc2)C(c2ccccc2)C1Sc1ccccc1` (stereo not drawn), the T/C is, setting by setting: under setting [4], 96 % of control; (dose: 100.0 mg/kg/injection, schedule: Q01DX005 (ip), vehicle: saline with Tween-80) 105 % of control; (dose: 200.0 mg/kg/injection, schedule: Q01DX005 (ip), vehicle: saline with Tween-80) 99 % of control.

For the molecule `O=C1CC2(CC=CCC23OCCO3)CC(CI)O1` (stereo not drawn), the T/C runs as follows: (dose: 2.5 mg/kg/injection, schedule: Q01DX005 (ip), vehicle: acid diluted with saline) 106 % of control; (dose: 5.0 mg/kg/injection, schedule: Q01DX005 (ip), vehicle: Klucel (hydroxypropylcellulose) (HPC)) 100 % of control; (dose: 5.0 mg/kg/injection, schedule: Q01DX005 (ip), vehicle: acid diluted with saline) 111 % of control; (dose: 10.0 mg/kg/injection, schedule: Q01DX005 (ip), vehicle: Klucel (hydroxypropylcellulose) (HPC)) 100 % of control; (dose: 10.0 mg/kg/injection, schedule: Q01DX005 (ip), vehicle: acid diluted with saline) 93 % of control; (dose: 20.0 mg/kg/injection, schedule: Q01DX005 (ip), vehicle: Klucel (hydroxypropylcellulose) (HPC)) 98 % of control. The T/C is, setting by setting: (dose: 20.0 mg/kg/injection, schedule: Q01DX005 (ip), vehicle: acid diluted with saline) 100 % of control; (dose: 40.0 mg/kg/injection, schedule: Q01DX005 (ip), vehicle: Klucel (hydroxypropylcellulose) (HPC)) 103 % of control.

With `CCN(c1ccccc1)c1cc2c(cc1[N+](=O)[O-])no[n+]2[O-]`, the T/C (dose: 1.87 mg/kg/injection, schedule: Q01DX009 (ip), vehicle: saline) is 101 % of control; the T/C (dose: 3.75 mg/kg/injection, schedule: Q01DX009 (ip), vehicle: saline) was 91 % of control; the T/C (dose: 7.5 mg/kg/injection, schedule: Q01DX009 (ip), vehicle: saline) is 90 % of control and 97 % of control; the T/C (dose: 15.0 mg/kg/injection, schedule: Q01DX009 (ip), vehicle: saline) was 103 % of control and 91 % of control; the T/C (dose: 30.0 mg/kg/injection, schedule: Q01DX009 (ip), vehicle: saline) is 93 % of control.

`C/C(C(=O)NC1CC1)=C(\C)c1ccc(Br)cc1`: the T/C runs as follows: (dose: 50.0 mg/kg/injection, schedule: Q04DX003 (ip), vehicle: Klucel (hydroxypropylcellulose) (HPC)) 99 % of control; (dose: 100.0 mg/kg/injection, schedule: Q04DX003 (ip), vehicle: Klucel (hydroxypropylcellulose) (HPC)) 99 % of control; (dose: 200.0 mg/kg/injection, schedule: Q04DX003 (ip), vehicle: Klucel (hydroxypropylcellulose) (HPC)) 98 % of control.

With `CCSc1nc2ccc(N=Cc3ccc(NS(=O)(=O)c4ccccc4)cc3O)cc2s1`, the T/C is, setting by setting: under setting [5], 116 % of control; under setting [6], 103 % of control.

Consider `CN(C)c1nc(=O)c2c(ccc3ccccc32)o1`, for which the T/C reads like this: under setting [7], 97 % of control; under setting [8], 104 % of control; under setting [9], 101 % of control.

Take `O=C(O)C1=C(C=C2CCCCC2)OCCC1`: the T/C is 88 % of control under setting [1], 92 % of control under setting [2] and 95 % of control under setting [3].

On to `CNC(=O)N(Cl)c1ccc(Cl)cc1`, for which the T/C is, setting by setting: under setting [10], 98 % of control; (dose: 100.0 mg/kg/injection, schedule: Q01DX009 (ip), vehicle: saline) 96 % of control; (dose: 200.0 mg/kg/injection, schedule: Q01DX009 (ip), vehicle: saline) 97 % of control.

For `O=C(c1cccc(C(=O)N2CCOCC2)n1)N1CCOCC1`, the T/C is, setting by setting: (dose: 60.0 mg/kg/injection, schedule: Q01DX005 (ip), vehicle: saline) 106 % of control; (dose: 120.0 mg/kg/injection, schedule: Q01DX005 (ip), vehicle: saline) 100 % of control; (dose: 240.0 mg/kg/injection, schedule: Q01DX005 (ip), vehicle: saline) 106 % of control.

As for `CC(C)n1c2c(c3ccccc3c1=O)C(=O)c1ccccc1-2`, the T/C was 95 % of control (dose: 12.5 mg/kg/injection, schedule: Q01DX005 (ip), vehicle: saline with Tween-80); 86 % of control (dose: 25.0 mg/kg/injection, schedule: Q01DX005 (ip), vehicle: saline with Tween-80); 86 % of control under setting [4].

As for `Cc1cc(N=[N+]=[N-])c2cc3c(cc2n1)OCO3`, the T/C runs as follows: under setting [7], 103 % of control; under setting [8], 95 % of control; under setting [9], 94 % of control.

In the case of `CC(C)c1ccc(C(=O)O)cc1`, the T/C is, setting by setting: under setting [1], 103 % of control; under setting [2], 103 % of control; under setting [3], 115 % of control.

In the case of `CCCN(CCNc1cc(OC)cc2cccnc12)C(C)CC` (stereo not drawn), the T/C (dose: 50.0 mg/kg/injection, schedule: Q01DX005 (ip), vehicle: saline) is 107 % of control and the T/C (dose: 100.0 mg/kg/injection, schedule: Q01DX005 (ip), vehicle: saline) is 92 % of control.

As to `O=C1CCCC2C3CCC[N+]4([O-])CCCC(O)(CN12)C34` (stereo not drawn), the T/C is, setting by setting: (dose: 6.2 mg/kg/injection, schedule: Q01DX007 (ip), vehicle: carboxymethylcellulose (CMC)) 100 % of control; (dose: 12.5 mg/kg/injection, schedule: Q01DX007 (ip), vehicle: carboxymethylcellulose (CMC)) 91 % of control; (dose: 25.0 mg/kg/injection, schedule: Q01DX007 (ip), vehicle: carboxymethylcellulose (CMC)) 91 % of control.

In the case of `O=C1COC(c2ccccc2O)=NN1CCN1CCOCC1`, the T/C under setting [1] was 103 % of control, the T/C under setting [2] was 103 % of control and the T/C under setting [3] was 94 % of control.

For `O=C1C=Cc2cccc3ccc(O)c1c23`, the T/C is 104 % of control under setting [11]; 109 % of control under setting [12]; 104 % of control (dose: 200.0 mg/kg/injection, schedule: Q01DX005 (ip), vehicle: Klucel (hydroxypropylcellulose) (HPC)).

Turning to `CC1(C)OC2(C)NS(=O)(=O)c3ccc(Cl)cc3N2C1=O` (stereo not drawn), the T/C reads like this: under setting [1], 106 % of control; under setting [2], 100 % of control; under setting [3], 98 % of control.

On to `O=C(O)c1c(-c2ccccc2)cnc2ccccc12`, for which the T/C reads like this: under setting [1], 95 % of control; under setting [2], 89 % of control; under setting [3], 97 % of control.

With `C=CC(=NC(C)(C)C)Nc1ccccc1C(=O)OC`, the T/C (dose: 12.5 mg/kg/injection, schedule: Q01DX009 (ip), vehicle: saline) was 108 % of control; the T/C (dose: 25.0 mg/kg/injection, schedule: Q01DX009 (ip), vehicle: saline) was 107 % of control; the T/C under setting [1] was 101 % of control; the T/C under setting [10] is 108 % of control.

As to `C=C(C)C1CC=C(C)C(OCCN(CC)CC)C1` (stereo not drawn), the T/C runs as follows: under setting [11], 100 % of control; under setting [12], 103 % of control.

Consider `CCC(=O)c1ccc(OS(=O)(=O)O)cc1`, for which the T/C runs as follows: under setting [5], 96 % of control; under setting [6], 103 % of control; (dose: 200.0 mg/kg/injection, schedule: Q01DX009 (ip), vehicle: Klucel (hydroxypropylcellulose) (HPC)) 99 % of control.

Consider `CN(C)CCSc1nnc(N)s1`, for which the T/C was 108 % of control (dose: 25.0 mg/kg/injection, schedule: Q01DX001 (ip), vehicle: saline); 109 % of control (dose: 50.0 mg/kg/injection, schedule: Q01DX001 (ip), vehicle: saline); 105 % of control and 109 % of control (dose: 100.0 mg/kg/injection, schedule: Q01DX001 (ip), vehicle: saline); 94 % of control (dose: 200.0 mg/kg/injection, schedule: Q01DX001 (ip), vehicle: saline).

The values above are taken from PubChem BioAssay AID330 (DTP/NCI, 2004).
